This passage reports melting point results from patent publication US9073900B2, “Dihydroquinone derivatives of piperidine and piperazine” (KING FAHD UNIVERSITY OF PETROLEUM AND MINERALS, priority 2013, dated 2015).

The term melting point denotes the temperature of the solid-liquid transition. The compound `O=C1NCc2ccc(N3CCN(Cc4ccc(-c5ccc(F)cc5)cc4)CC3)cc2N1` [Compound 5b, 7-(4-((4′-fluorobiphenyl-4-yl)methyl)piperazin-1-yl)-3,4-dihydroquinazolin-2(1H)-one] gave a melting point of 220 to 221 °C.

Compound `O=C1NCc2ccc(C3CCN(Cc4ccc(-c5ccc(F)cc5)cc4)CC3)cc2N1` [Compound 6b, 7-(1-((4′-fluorobiphenyl-4-yl)methyl)piperidin-4-yl)-3,4-dihydroquinazolin-2(1H)-one] yielded a melting point of 160 to 161 °C.

As to `O=C1NCc2ccc(N3CCN(Cc4cncc(-c5ccc(F)cc5)c4)CC3)cc2N1` [Compound 5d, 7-(4-((5-(4-fluorophenyl)pyridin-3-yl)methyl)piperazin-1-yl)-3,4-dihydroquinazolin-2(1H)-one], the melting point is 180 to 181 °C.

As for `O=C1NCc2ccc(N3CCN(Cc4cncc(C5=CCCC5)c4)CC3)cc2N1` [Compound 5f, 7-(4((5-cyclopentenylpyridin-3-yl)methyl)piperazin-1-yl)-3,4-dihydroquinazolin-2(1H)-one], the melting point was in the range of 185 to 186 °C.

`O=C1NCc2ccc(N3CCN(Cc4ccc(-c5ccccc5)cc4)CC3)cc2N1` [Compound 5a, 7-(4-(biphenyl-4-ylmethyl)piperazin-1-yl)-3,4-dihydroquinazolin-2(1H)-one] registered a melting point of 134 to 135 °C.

With `O=C1NCc2ccc(C3CCN(Cc4cncc(C5=CCCC5)c4)CC3)cc2N1` [Compound 6f, 7-(1-((5-cyclopentenylpyridin-3-yl)methyl)piperidin-4-yl)-3,4-dihydroquinazolin-2(1H)-one], the melting point is 166 to 167 °C.
